# Data as given in PubChem BioAssay (NCI).
#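 All cell lines were grown in 96-well plates and treated with compound for 48 hours. TGI is the concentration that stops growth completely.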
# How the values were obtained:
# Test in all cases: DTP human tumour cell line panel, 48 h
# A498 renal = tested on: A498 renal
# HL-60(TB) leukemia = tested on: HL-60(TB) leukemia
# KM12 colon = tested on: KM12 colon
# LOX IMVI melanoma = tested on: LOX IMVI melanoma
# MOLT-4 leukemia = tested on: MOLT-4 leukemia
# NCI-H23 lung = tested on: NCI-H23 lung
# SF-539 CNS = tested on: SF-539 CNS
# SK-MEL-2 melanoma = tested on: SK-MEL-2 melanoma
# CAKI-1 renal = tested on: CAKI-1 renal
# SW-620 colon = tested on: SW-620 colon
# RXF 393 renal = tested on: RXF 393 renal
Compound,TGI (A498 renal) [µM],TGI (HL-60(TB) leukemia) [µM],TGI (KM12 colon) [µM],TGI (LOX IMVI melanoma) [µM],TGI (MOLT-4 leukemia) [µM],TGI (NCI-H23 lung) [µM],TGI (SF-539 CNS) [µM],TGI (SK-MEL-2 melanoma) [µM],TGI (CAKI-1 renal) [µM],TGI (SW-620 colon) [µM],TGI (RXF 393 renal) [µM]
Cc1c(-c2coc(-c3ccc([N+](=O)[O-])cc3)n2)c(=O)n(-c2ccccc2)n1C,> 100,> 100,> 100,> 100,> 100,> 100,> 100,> 100,–,–,–
O=C(c1ccccc1)c1ccc(N2C(=O)/C(=C/c3ccccc3S)N=C2c2ccccc2)c(N2C(=O)/C(=C/c3ccccc3S)N=C2c2ccccc2)c1,> 100,> 100,> 100,62.9,56.6,–,40.3,57.3,> 100,> 100,–
Cc1cn(C2CC(O)C(Cn3nncc3Cn3cnc4c(N)ncnc43)O2)c(=O)[nH]c1=O (stereo not given),> 100,> 100,> 100,> 100,> 100,> 100,> 100,> 100,> 100,> 100,> 100
O=C(O)C12C3CCC(C3)C1(C(=O)O)C1CCC2C1 (stereo not given),> 100,> 100,> 100,58.1,> 100,> 100,–,> 100,> 100,34.2,> 100
CN1CCS(=O)(=O)NC(Cc2ccccc2)C(=O)N2CCCC2C1=O (stereo not given),> 100,> 100,> 100,> 100,> 100,> 100,> 100,> 100,> 100,> 100,–
C1CSCCSCCSCCSCCS1,> 100,> 100,> 100,> 100,> 100,> 100,> 100,> 100,> 100,> 100,> 100
Nc1ccc(-c2nc3ccccc3s2)cc1CO,> 100,> 100,> 100,> 100,> 100,> 100,–,> 100,> 100,> 100,> 100
COc1ccc2nc3c4c(nccc4c2c1)-c1ncccc1C3=O,0.224,0.165,0.706,0.0977,5.31,0.265,0.56,1.43,1.83,0.567,1.02
C=CC(C)(C)NC(C(=O)N1CCC[C@H]1c1nc(-c2nc(C(=O)OCC=C(C)C)c(C)o2)c(C)o1)C(C)C (stereo not given in full),> 100,71.6,> 90.6,> 74.5,> 100,> 100,> 68.7,> 73.4,99.8,> 100,> 91.4
O=S(=O)(O)c1c(Cl)c(Cl)c(O)c2ncccc12,26,4.75,33.2,7.99,20.1,29.6,> 56.7,45,65.4,> 72.4,44.5
Cc1cc(-c2nc3cc(F)ccc3s2)ccc1N,66.8,> 100,> 100,> 100,> 100,> 84.2,46.1,> 68.4,> 94,> 100,52.4
O=c1[nH]c(=O)n([C@H]2C[C@@H](CO)[C@@H](O)C2)cc1I,> 100,> 100,> 100,> 100,> 100,> 100,> 100,> 100,> 100,> 100,–
O=C1CCC(=O)c2ccccc2N1,> 100,> 100,> 100,> 100,> 100,> 100,> 100,> 100,> 100,> 100,> 100
OC1C2CCCCN2C[C@@H](O)[C@H]1O (stereo not given in full),> 100,> 100,> 100,> 100,> 100,> 100,> 100,> 100,> 100,> 100,> 100
COc1ccc(/C(C)=C2\CCCN(Cc3ccccc3)C2)cc1,> 100,47.5,33.3,35.3,59.8,79.6,35.2,43.4,58.4,36.1,43.2
O=C1CC(n2ccnc2)c2c(Cl)sc(Cl)c21 (stereo not given),–,> 100,33.9,19.2,> 24,30.9,35.4,54.9,36.1,> 33.1,33.9
CN(C)CC1(Cc2ccccc2)CC/C(=C\c2ccccc2)C1=O (stereo not given),> 100,48.7,> 100,74.9,67.5,> 100,60.3,> 100,> 100,60.3,92.8
CCOC(=O)c1c2ccccc2n2c(=O)n(-c3ccc(OC)cc3)nnc12,> 100,> 100,> 100,> 100,–,> 81.5,45.6,> 100,> 79.9,> 100,43.5
CNC(=O)O/N=C1\N(C)CN(c2ccccc2)C12CCN(CCCC(=O)c1ccc(F)cc1)CC2,> 100,> 100,81.7,> 100,> 100,> 100,> 100,> 100,> 100,> 100,> 100
COc1cc(-c2nc(N)c(C#N)c3c2CCS(=O)(=O)c2ccc(C)cc2-3)cc(OC)c1OC,69.8,> 100,> 100,> 100,–,> 100,–,> 100,> 100,> 100,–
COc1ccc(/C=C2/SC(=Nc3ccccc3)N(NC(=O)Cc3ccccc3)C2=O)cc1,> 100,> 100,> 100,–,> 100,> 100,> 100,> 100,–,> 100,> 100
N#CCCC1(CCC#N)S(=O)(=O)OCCOS1(=O)=O,–,69.4,> 100,> 100,> 100,> 100,31.1,> 100,> 100,> 100,> 100

Compound,TGI (A498 renal) [µM],TGI (HL-60(TB) leukemia) [µM],TGI (KM12 colon) [µM],TGI (LOX IMVI melanoma) [µM],TGI (MOLT-4 leukemia) [µM],TGI (NCI-H23 lung) [µM],TGI (SF-539 CNS) [µM],TGI (SK-MEL-2 melanoma) [µM],TGI (CAKI-1 renal) [µM],TGI (SW-620 colon) [µM],TGI (RXF 393 renal) [µM]
CN(C)c1n2c3ccc([N+](=O)[O-])cc3n3c(N(C)C)[n+]4ccccc4c3c2c2cccc[n+]12,> 100,> 100,> 100,> 100,> 100,> 100,–,> 100,> 100,> 100,> 100
N#Cc1ccc(C2OCC3CC=CCC3CO2)cc1 (stereo not given),–,94.9,> 100,> 100,> 100,> 100,> 100,> 100,> 100,> 100,> 100
O=C(Nn1c(-c2ccccc2)nc2ccccc2c1=O)c1cccc([N+](=O)[O-])c1,> 100,> 100,> 100,> 100,> 100,> 100,> 100,–,–,> 100,> 100
COC(=O)c1cc(/C=C/C(=O)Cc2ccccc2)cn1S(=O)(=O)c1ccccc1,–,> 100,> 100,> 100,> 100,> 100,> 100,> 100,> 100,–,> 100
c1ccc2c(c1)nc1ccccn12,29.5,> 100,> 100,–,> 100,> 100,> 100,–,–,> 100,> 100
Cc1cc(NS(=O)(=O)c2ccc(NO)cc2)no1,> 100,> 100,> 100,39.6,> 100,–,> 100,> 100,> 100,82.9,> 100
CC1(C)N=C(C(N)=O)c2ncn(Cc3ccccc3)c2N1,> 100,> 100,> 100,> 100,–,> 100,> 100,> 100,> 100,> 100,> 100
COc1ccc(S(=O)(=O)N/N=C(\C)CN2C(=O)c3ccccc3C2=O)cc1OC,> 100,> 100,> 100,–,> 100,> 100,> 100,> 100,> 100,> 100,–
Cc1cc2c(cc1Cl)SC(NNCCO)=NS2(=O)=O,–,> 100,> 100,> 100,> 100,> 100,> 100,> 100,> 100,> 100,> 100
Cc1cn(CC(=S)NCCc2c[nH]c3ccccc23)c(=O)[nH]c1=O,> 100,> 100,> 100,> 100,> 100,> 100,> 100,> 100,–,> 100,> 100
CC(=O)N1C(c2[nH]c3ccccc3c2Cc2ccccc2)CCN1c1ccccc1 (stereo not given),–,> 10,–,> 10,> 10,> 10,> 10,> 10,> 10,> 10,> 10
COc1nc(=O)[nH]c2c1C(c1ccc([N+](=O)[O-])cc1)c1c(OC)nc(=O)[nH]c1O2,> 100,> 100,> 100,–,> 100,> 100,–,> 100,> 100,> 100,> 100
O=C(Nc1ccccc1)OCCN=c1c2ccccc2ccc2ccccc12,–,44.9,44.4,44.5,42.6,> 100,37,29.1,90.6,> 100,75.9
CC(C)CCNC(=O)c1ccc(CNC(=O)/C=C/c2ccc3ccccc3c2)cc1,> 100,> 100,> 100,> 100,> 100,> 100,–,> 100,> 100,> 100,> 100
C=C1N(C)c2ccc(S(=O)(=O)c3ccc4c(c3)C(C)(C)C(=C)N4C)cc2C1(C)C,> 100,> 100,> 100,–,91.7,> 100,> 100,> 100,> 100,> 100,–
CCOC(=O)N1c2ccccc2N(C(=O)OCC)C1CC(=O)/C=C/c1ccccc1,10.6,6.94,9.51,7.06,12.4,8.7,–,7.38,12.6,25,13.8
Cc1c2c(n3c(nc4ccccc43)c1C#N)N(c1ccc(F)cc1)CC2,> 100,> 100,–,> 100,–,> 100,> 100,> 100,> 100,> 100,> 100
O=c1ccn(C/C=C/c2ccccc2)c(=S)n1C/C=C/c1ccccc1,> 100,39.4,> 100,> 100,92.6,> 100,–,> 100,> 100,> 100,85.6
Cc1nc(C)c(N2CCN(Cc3ccccc3)CC2)c(=O)[nH]1,> 100,> 100,> 100,> 100,> 100,> 100,> 100,–,–,> 100,> 100
COc1cc(C2C(C(=O)NCc3ccccc3)=C(C)NC(C)=C2C(=O)NCc2ccccc2)ccc1O,> 100,66.5,–,> 100,55.8,90.5,41,61.2,75.1,> 100,77.8
CCCCCN1C(=O)C(Cc2ccccc2)N=C(c2ccc(O)cc2)c2cc(Cl)ccc21 (stereo not given),> 48.4,> 100,30.3,18.5,26.3,17.7,38.9,34.4,35.1,26.8,–
